Common to all, as to experiment: NCI-60 cell line screen, 48 h
Assay [1] concerns DLD-1 colon.
For assay [2], the system named is HOP-92 NSCLC.
In assay [3] the test system is K-562 leukemia.
Assay [4] concerns KM12 colon.
Assay [5] has as its system LXFL 529 NSCLC.
The test system of assay [6] is M19-MEL melanoma.
Assay [7] has as its system OVCAR-4 ovarian.
The subject of assay [8] is SN12C renal.
The subject of assay [9] is XF 498 CNS.
Assay [10] has as its system KM20L2 colon.
Assay [11] relates to MCF7 breast.

Several values for one entry are separate records, joined by “and”; a condition that tells them apart may be missing. Identical values can stand only once.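 In this assay, cells in 96-well plates receive the compound at five concentrations for 48 hours. Endpoints are linearly interpolated between the surrounding concentrations. Here, GI50 denotes the concentration required for 50% inhibition of growth. TGI: total growth inhibition.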

Take `S=C(N/N=C/c1ccccc1)NC1CC(c2ccccc2)Oc2ccccc21` (stereo unspecified): the TGI was > 100 µM in [1]; 10.2 µM in assay [2]; > 100 µM in assay [3]; > 100 µM in assay [4]; > 100 µM in assay [5]; > 100 µM in assay [6]. In addition, the values for the TGI in assay [7], in [8] and in assay [9] were 71.3 µM, > 100 µM and > 100 µM, respectively.
Turning to `CC(=O)/C=C\C(=O)NNS(=O)(=O)c1ccc(C)cc1`, the TGI in [1], in assay [2], in assay [3], in [4], in [10] and in assay [5] was > 100 µM throughout. Besides, the TGI in assay [6], in [7], in [8] and in assay [9] was > 100 µM in each case.
In the case of `CC(=O)OC12CCCCC1C1(CCCC1)NC2=O` (stereo unspecified), the TGI in assay [1], in [3], in [4], in assay [10], in assay [5] and in assay [6] was > 100 µM each time. The TGI in assay [7], in assay [8] and in [9] was > 100 µM each time.
As to `COc1cccc2c1C(=N)c1c(O)c3c(c(O)c1C2=O)C[C@@](O)(C(C)=O)C[C@@H]3OC1CC(N)C(O)C(C)O1` (stereo partly specified), the TGI in assay [1] was 5.7 µM and 14.9 µM; in assay [2] it was 2.71 µM and 3.58 µM; in assay [3] it was 3.34 µM and 14.8 µM and 6.67 µM; in assay [4] it was 2.55 µM and 1.94 µM and 10.4 µM; in assay [5], 3.54 µM; in assay [6], 2.15 µM and 2.64 µM. Further, the TGI in assay [11] was 24.8 µM and 13.4 µM; in [7], 7.58 µM and 7.84 µM and 8 µM; in [8], 1.28 µM and 1.92 µM and 2.23 µM; in assay [9], 2.26 µM and 2.27 µM.
For the molecule `COc1ccccc1C1C(Cl)C(=O)N1NC(=O)Cc1ccccc1` (stereo unspecified), the TGI in assay [3], in assay [4], in assay [10], in assay [5], in [6] and in [7] was > 100 µM each time. Further, the TGI in assay [8] and in assay [9] was > 100 µM each time.
Take `C[CH2][Ge]1([CH2]C)[CH2]CC2(CCN(CCCN(C)C)C2)C[CH2]1`: the GI50 in assay [2] was 201 nM and 1000 nM; in [3], 237 nM and 1110 nM; in assay [4] it was 1.83 µM and 10.2 µM; in assay [10], 2940 nM; in [6], 1470 nM; in [11], 990 nM and 2420 nM. Further, the GI50 in assay [7] was 694 nM and 4410 nM; in assay [8], 1380 nM; in [9] it was 1160 nM. The TGI is 1.65 µM and 1.34 µM in assay [2]; 2.36 µM and 5.13 µM in assay [3]; 4.02 µM and 22.2 µM in [4]; 11 µM in assay [10]; 2.63 µM in assay [6]; 2.69 µM and 4.05 µM in assay [11]. Further, the TGI was 6.79 µM and 11.6 µM in [7]; 4.62 µM in [8]; 1.45 µM in [9].
Take `CCN(CC)CC(C(=O)Nc1c(C)cccc1C)/C(C)=N/NC(N)=S` (stereo unspecified): the TGI in assay [1], in assay [2], in assay [3], in [4], in assay [10] and in assay [5] was > 100 µM throughout. Further, the TGI in [6] and in [9] was > 100 µM each time.
Regarding `COc1ccc2nccc(C3OC(=O)N4CCC(=O)CC34)c2c1` (stereo unspecified), the TGI in assay [2], in [3], in assay [4], in assay [10], in assay [5] and in assay [6] was > 100 µM throughout. In addition, the TGI in assay [7], in assay [8] and in [9] was > 100 µM each time.
In the case of `O=S(O)CCCSSCCCCSSCCCS(=O)O`, the TGI in assay [1], in assay [3], in assay [4], in assay [10], in assay [5] and in assay [6] was > 100 µM in each case. Besides, the TGI in assay [7], in assay [8] and in [9] was > 100 µM each time.
In the case of `CC1CCCC2(O1)OC1CC(=O)OC1C1=C2C(=O)c2ccccc2C1=O` (stereo unspecified), the TGI turned out to be 31.7 µM in assay [4]; 16 µM in assay [10]; 2.76 µM in [5]; 7.36 µM in assay [6]; 3.83 µM in [7]; 4.77 µM in [8]. In assay [9], the TGI was 8.42 µM.
In the case of `O=C1c2ccccc2CC1C1(O)C(=O)Nc2c(Cl)cc(Cl)cc21` (stereo unspecified), the TGI in assay [1], in assay [2], in assay [3], in assay [4], in assay [10] and in assay [5] was > 100 µM throughout. In addition, the TGI in assay [7], in assay [8] and in [9] was > 100 µM throughout.

The values are drawn from PubChem BioAssay (NCI).
